PMC10094639, “Novel Antibiotic Resistance Genes Identified by Functional Gene Library Screening in Stenotrophomonas maltophilia and Chryseobacterium spp. Bacteria of Soil Origin” (International Journal of Molecular Sciences, 2023)
Values after ≈ are worked out from the molar mass of the structure shown.

What was measured:
C. aahli = assay: organism not typed; set-up: Broth microdilution MIC (Sensititre plates, ARIS 2X) against soil bacterial isolates; details: soil
Text: (§1) Six Stenotrophomonas maltophilia and eight Chryseobacterium spp. antibiotic-resistant isolates were used for genomic library construction; all bacteria were isolated from farming field soil in Lithuania during the year 2016 [17, 65]. The isolates were designated as resistant if the MIC of antibiotic value matched EUCAST clinical breakpoints (v. 7.0, 2017, PK/PD (non-species related). Species were identified by matching obtained sequences with a sequence showing the highest maximum identity score from the GenBank database. If the identity of the best match was <99% and the query cover was <96%, only the genus was assigned. All environmental isolates were grown in LB medium at 28 °C. The bacteria were isolated from three farming fields in Lithuania during the year 2016 [17]. The sample collection points represented two different types of farming, i.e., organic and conventional (intensive); in all cases, the type of the soil was sandy loam. The organic farming sites were known not to use inorganic fertilizers or pesticides for a time period of over 20 years and were fertilized only with organic fertilizers (farmyard manure and slurry). Identification of bacterial isolates was based on 16S rRNA fragment sequencing as described previously. All six isolates of S. maltophilia were collected from a conventional winter wheat farming field. Antibiotic-resistant Chryseobacterium spp. isolates were recovered from various fields (conventional winter wheat, conventional rapeseed, and organic rapeseed). Two of the isolates were identified as C. aahli, and another two were identified as C. soldanellicola; for four of the isolates, only the genus could be assigned as Chryseobacterium spp. All selected isolates of S. maltophilia and Chryseobacterium spp. were resistant to at least two classes of antibiotics (β-lactams, aminoglycosides, and/or fluoroquinolones) (Table S1).

C. soldanellicola = assay: organism not typed; set-up: Broth microdilution MIC (Sensititre plates, ARIS 2X) against soil bacterial isolates; details: soil
Text: as §1

Chryseobacterium sp. = assay: microbe, parasite or virus in culture; set-up: Broth microdilution MIC (Sensititre plates, ARIS 2X) against soil bacterial isolates; details: Chryseobacterium
Text: as §1

S. maltophilia = assay: microbe, parasite or virus in culture; set-up: Broth microdilution MIC (Sensititre plates, ARIS 2X) against soil bacterial isolates; details: Stenotrophomonas maltophilia
Text: as §1

IND-17 [1] = system: T1, IND-17; assay: UV-Vis spectrophotometry, initial hydrolysis rates, […] nm; assay type: biochemical, Chryseobacterium sp.; details: 50 mM HEPES pH 7.0, 50 µM ZnCl2, 22 °C
T1 construct: signal peptide removed; pET-28b (NcoI) in E. coli BL21 Tuner (DE3); no tag mentioned

CHM = system: T2, CHM; assay: as above; assay type: biochemical, Chryseobacterium sp.; details: 50 mM HEPES pH 7.0, 50 µM ZnCl2, 22 °C
T2 construct: signal peptide removed; pET-28b (NcoI) in E. coli BL21 Tuner (DE3); no tag mentioned

IND-17 [2] = system: T1, IND-17; assay: as above; assay type: biochemical, Chryseobacterium sp.; details: 50 mM HEPES pH 7.0, 50 µM ZnCl2, 22 °C; remark: listed apart in the source

| SMILES | MIC (C. aahli; Isolate No.=3-7-14) [µg/mL] | MIC (C. soldanellicola; Isolate No.=3-7-16) [µg/mL] | MIC (C. soldanellicola; Isolate No.=4-6-16) [µg/mL] | MIC (Chryseobacterium sp.; Isolate No.=2-2-6) [µg/mL] | MIC (S. maltophilia; Isolate No.=2-1-3) [µg/mL] | MIC (S. maltophilia; Isolate No.=2-4-11) [µg/mL] | MIC (C. aahli; Isolate No.=3-12-27) [µg/mL] | MIC (S. maltophilia; Isolate No.=2-12-28) [µg/mL] | MIC (S. maltophilia; Isolate No.=2-12-31) [µg/mL] | Km (IND-17 [1]) [µM] | Km (CHM) [µM] | MIC (Chryseobacterium sp.; Isolate No.=2-4-10) [µg/mL] | MIC (Chryseobacterium sp.; Isolate No.=2-6-15) [µg/mL] | MIC (S. maltophilia; Isolate No.=2-8-21) [µg/mL] | Km (IND-17 [2]) [µM] |
| --- | --- | --- | --- | --- | --- | --- | --- | --- | --- | --- | --- | --- | --- | --- | --- |
| COCC1=C(C(=O)O)N2C(=O)[C@@H](NC(=O)/C(=N\OC)c3csc(N)n3)[C@H]2SC1 [Cefpodoxime] | 16 (≈ 37.4 µM) | 4 (≈ 9.36 µM) | 8 (≈ 18.7 µM) | > 16 | 16 (≈ 37.4 µM) | > 16 |  |  |  |  |  |  |  |  |  |
| CO/N=C(\C(=O)N[C@@H]1C(=O)N2C(C(=O)[O-])=C(C[N+]3(C)CCCC3)CS[C@H]12)c1csc(N)n1 [Cefepime] | 8 (≈ 16.6 µM) | ≤ 4 |  | ≤ 4 | ≤ 4 |  | ≤ 4 | > 32 | 16 (≈ 33.3 µM) |  |  |  |  |  |  |
| CO/N=C(\C(=O)N[C@@H]1C(=O)N2C(C(=O)O)=C(COC(N)=O)CS[C@H]12)c1ccco1 [Cefuroxime] | 32 (≈ 75.4 µM) | 32 (≈ 75.4 µM) |  | > 32 | 32 (≈ 75.4 µM) | > 32 |  |  |  | 30 ± 5.8 | 76 ± 19 |  |  |  |  |
| CO[C@@]1(NC(=O)Cc2cccs2)C(=O)N2C(C(=O)O)=C(COC(N)=O)CS[C@@H]21 [Cefoxitin] | 32 (≈ 74.9 µM) | 8 (≈ 18.7 µM) | 16 (≈ 37.4 µM) | > 32 | 32 (≈ 74.9 µM) |  |  | > 32 |  |  |  | 32 (≈ 74.9 µM) | 16 (≈ 37.4 µM) |  |  |
| Cc1nnc(SCC2=C(C(=O)O)N3C(=O)[C@@H](NC(=O)Cn4cnnn4)[C@H]3SC2)s1 [Cefazolin] | 32 (≈ 70.4 µM) | 32 (≈ 70.4 µM) | > 32 | > 32 | 32 (≈ 70.4 µM) | > 32 |  |  |  | 38 ± 12 | 167 ± 27 |  |  |  |  |
| C[C@H]1[C@H](NC(=O)/C(=N\OC(C)(C)C(=O)O)c2csc(N)n2)C(=O)N1S(=O)(=O)O [Aztreonam] | 32 (≈ 73.5 µM) | 32 (≈ 73.5 µM) | > 32 | > 32 | 16 (≈ 36.7 µM) | ≤ 8 |  | 32 (≈ 73.5 µM) |  |  |  |  |  |  |  |
| CO/N=C(\C(=O)N[C@@H]1C(=O)N2C(C(=O)O)=C(CSc3nc(=O)c(O)nn3C)CS[C@H]12)c1csc(N)n1 [Ceftriaxone] | 64 (≈ 115 µM) | 4 (≈ 7.21 µM) | 8 (≈ 14.4 µM) | > 64 | 32 (≈ 57.7 µM) |  |  | > 64 |  |  |  | 64 (≈ 115 µM) |  |  |  |
| NC[C@H]1O[C@H](O[C@H]2[C@H](O)[C@@H](O[C@H]3O[C@H](CO)[C@@H](O)[C@H](N)[C@H]3O)[C@H](N)C[C@@H]2N)[C@H](N)C[C@@H]1O [Tobramycin] | 8 (≈ 17.1 µM) | 8 (≈ 17.1 µM) |  | > 8 | ≤ 4 |  |  |  |  |  |  |  |  | 8 (≈ 17.1 µM) |  |
| CC1(C)S[C@@H]2[C@H](NC(=O)[C@H](N)c3ccccc3)C(=O)N2[C@H]1C(=O)O [Ampicillin] |  |  |  |  |  |  |  |  |  |  |  |  |  |  | 470 ± 108 |
